# Laboratory results from patent publication US20090304694A1, “Ang2 and Vegf Inhibitor Combinations” (AMGEN INC., priority 2006, published 2009).
# System: Colo205 colorectal cancer cell xenografts
# Experiment: Colo205 xenograft tumor volume, 2xCon4(C) (2.8 μg) and Avastin™ (10 μg) (Example 7)
# Type: in vivo, female athymic nude mice (CD1 Nu/Nu)
# Details: Avastin™ 10 μg IP twice per week; 2xCon4(C) 2.8 μg sc twice per week; day 14 to day 42
# Protocol: Xenografts of Colo205 cells injected into female athymic nude mice were treated with 2xCon4(C) alone, Avastin™, or a combination of the two as described below.
# Tumors were induced by injecting Colo205 cells subcutaneously into female athymic nude mice (CD1 Nu/Nu), 8-10 weeks old. All of the mice were obtained from Charles River Laboratories (Raleigh, N.C.). Cells were harvested from subconfluent cultures using trypsin/EDTA. The cells were greater than 95% viable by […] exclusion. 2×10^6 cells in 0.2 ml were injected subcutaneously into the right flank of each mouse.
# On day 14 after injection the tumors averaged 250 mm^3, and the mice were divided at random into four groups of 10 mice each. Group 1 received IgG1 at a dose of 10 μg and Fc fragment control at a dose of 2.8 μg and served as a negative control. Group 2 received Avastin™ at a dose of 10 μg and Fc fragment control at 2.8 μg. Group 3 received 2xCon4(C) at a dose of 2.8 μg and human IgG1 at a dose of 10 μg. […]
# The experiment was performed “blind” in accordance with the Cancer Pharmacology Blinded Study Guidelines. Tumors were measured and body weights were determined twice each week. Tumors were measured with an electronic digital caliper. Tumor volumes were calculated as the length×width×height measurements and expressed in mm^3.
# The data were analyzed by repeated measures ANOVA for tumor volumes over time using STATVIEW v. […]
substance,measurement,value
"Avastin™: recombinant humanized monoclonal antibody that binds directly to VEGF, sold by Genentech",reduction / inhibition of tumor growth compared to the control,18%
